Data: patent US11577010B2, “Hemostatic devices and methods of use” (priority 2017, dated 2023)
Each block holds one compound with its values, some of them ahead of it.

Columns and labels:
myofibroblast formation = settings: Ajmal et al. (2003) Plast. Reconstr. Surg. 112:1455-1461; cited from earlier work
[1] = in vitro elution of rifampin and minocycline from p22-27.5 polymers with TXA in release media (Example 15); format: physicochemical; settings: PBS pH 7.4 without or with TXA 0.05 mg/mL or 5 mg/mL, over 25 hours
Protocol: B1=PBS pH 7.4; B2=PBS, pH 7.4+TXA (0.05 mg/mL); B3=PBS, pH 7.4+TXA (5 mg/mL).

[2] = stability of rifampin and minocycline in PBS with and without tranexamic acid (Example 14); format: physicochemical; settings: regardless of temperature (RT about 23° C. and 37° C.)
Protocol: The mixtures were tested both at room temperature (RT) (about 23° C.) and at 37° C.

[3] = given preoperatively; cited from earlier work
blood [4] = assay: in vitro time required to induce blood clotting (Example 18); format: biochemical; settings: 1.2 mg of TXA alone
Protocol: Tests were conducted to compare the time required for different hemostatic agents to induce blood clotting in vitro versus the time required to induce blood clotting in vitro when no hemostatic agent is administered. In particular, the time required to induce blood clotting was plotted for blood alone, a polymer in the p22-xx family (P22-27.5-TYRX), Surgicel, a polymer in the p22-xx family (P22-27.5-TYRX) with 1.6 mg of TXA, 1.2 mg of TXA alone and a polymer in the p22-xx family (P22-27.5-TYRX) with X mg of TXA.
Tests were conducted to compare the time required for different hemostatic agents to induce blood clotting in vitro versus the time required to induce blood clotting in vitro when no hemostatic agent is administered. In particular, the time required to induce blood clotting was plotted for blood alone, TYRX, Surgicel, TYRX with 1.6 mg of TXA, 1.2 mg of TXA alone and TYRX with 200 mg of TXA. In this example, TYRX refers to a Glycoprene mesh that is coated with P22-27.5 (a polymer in the P22-X family) containing Rifampin and Minocycline.

blood [5] = assay: in vitro blood clotting time with different amounts of TXA in presence of TYRX (Example 17); format: biochemical; settings: higher amounts of TXA (1.6 mg TXA vs 200 mg of TXA), in the presence of TYRX
Protocol: Tests were conducted to compare the time required to induce blood clotting in vitro when different amounts of hemostatic agent is administered in the presence of TYRX (degradable mesh coated with P22-27.5 containing rifampin and minocycline), as shown in FIG. 40. Clotting time was […] when higher amounts of TXA was present (1.6 mg TXA vs 200 mg of TXA), as shown below in FIG. 44.

SMILES: O=S(=O)([O-])CCS.[Na+] [MESNA, sodium 2-mercaptoethane sulfonate]
myofibroblast formation (myofibroblast formation): diminish myofibroblast formation

elution rates, effect of TXA in the release media [1]: not effected | percentage area of rifampin, mixtures with vs without tranexamic acid [2]: substantially the same
SMILES: CO[C@H]1/C=C/O[C@@]2(C)Oc3c(C)c(O)c4c(O)c(c(/C=N/N5CCN(C)CC5)c(O)c4c3C2=O)NC(=O)/C(C)=C\C=C\[C@H](C)[C@H](O)[C@@H](C)[C@@H](O)[C@@H](C)[C@H](OC(C)=O)[C@@H]1C [rifampin]

SMILES: NC[C@H]1CC[C@H](C(=O)O)CC1 [tranexamic acid]
time to reach plasma concentrations [3]: 5 to 15 min | time to induce blood clotting (blood [4]): about 19 minutes | Clotting time (blood [5]): increased
